# PubChem BioAssay (NCI)
#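 GI50 = concentration required for 50% inhibition of growth. TGI: concentration producing complete growth inhibition.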
# Legend:
# Test in all cases: DTP human tumour cell line panel, 384-well format
# [1] = tested on: 786-0 renal
# [2] = tested on: A498 renal
# [3] = tested on: A549 NSCLC
# [4] = tested on: ACHN renal
# [5] = tested on: BT-549 breast
# [6] = tested on: CAKI-1 renal
# [7] = tested on: CCRF-CEM leukemia
# [8] = tested on: COLO 205 colon
# [9] = tested on: DU-145 prostate
# [10] = tested on: HCC-2998 colon
# [11] = tested on: HCT-116 colon
# [12] = tested on: HCT-15 colon
# [13] = tested on: HL-60(TB) leukemia
# [14] = tested on: HOP-62 NSCLC
# [15] = tested on: HOP-92 NSCLC
# [16] = tested on: HT29 colon
# [17] = tested on: IGROV1 ovarian
# [18] = tested on: K-562 leukemia
# [19] = tested on: KM12 colon
# [20] = tested on: LOX IMVI melanoma
# [21] = tested on: M14 melanoma
# [22] = tested on: MALME-3M melanoma
# [23] = tested on: MCF7 breast
# [24] = tested on: MDA-MB-231 breast
# [25] = tested on: MDA-MB-435 melanoma
# [26] = tested on: MDA-MB-468 breast
# [27] = tested on: MOLT-4 leukemia
# [28] = tested on: NCI-H226 lung
# [29] = tested on: NCI-H23 lung
# [30] = tested on: NCI-H322M lung
# [31] = tested on: NCI-H460 NSCLC
# [32] = tested on: NCI-H522 lung
# [33] = tested on: NCI/ADR-RES ovarian
# [34] = tested on: OVCAR-3 ovarian
# [35] = tested on: OVCAR-4 ovarian
# [36] = tested on: OVCAR-5 ovarian
# [37] = tested on: OVCAR-8 ovarian
# [38] = tested on: PC-3 prostate
# [39] = tested on: RPMI-8226 leukemia
# [40] = tested on: RXF 393 renal
# [41] = tested on: SF-268 CNS
# [42] = tested on: SF-295 CNS
# [43] = tested on: SF-539 CNS
# [44] = tested on: SK-MEL-2 melanoma
# [45] = tested on: SK-MEL-28 melanoma
# [46] = tested on: SK-MEL-5 melanoma
# [47] = tested on: SK-OV-3 ovarian
# [48] = tested on: SN12C renal
# [49] = tested on: SNB-19 CNS
# [50] = tested on: SR leukemia
# [51] = tested on: SW-620 colon
# [52] = tested on: T-47D breast
# [53] = tested on: TK-10 renal
# [54] = tested on: U251 glioblastoma
# [55] = tested on: UACC-257 melanoma
# [56] = tested on: UACC-62 melanoma
# [57] = tested on: UO-31 renal
smiles,measurement,setting,value
COc1ccc(-c2ccc3ncc4c(c3c2)n(-c2ccc(N3CCNCC3)c(C(F)(F)F)c2)c(=O)n4C)cn1,GI50,[1],< 10 nM
same,TGI,[1],151 nM
same,GI50,[2],< 10 nM
same,TGI,[2],< 10 nM
same,GI50,[3],< 10 nM
same,TGI,[3],25.4 nM
same,GI50,[4],< 10 nM
same,TGI,[4],43.8 nM
same,GI50,[5],< 10 nM
same,TGI,[5],17.2 nM
same,GI50,[6],< 10 nM
same,TGI,[6],14.9 nM
same,GI50,[7],< 10 nM
same,TGI,[7],13.6 nM
same,GI50,[8],< 10 nM
same,TGI,[8],21.7 nM
same,GI50,[9],< 10 nM
same,TGI,[9],128 nM
same,GI50,[10],< 10 nM
same,TGI,[10],103 nM
same,GI50,[11],< 10 nM
same,TGI,[11],130 nM
same,GI50,[12],< 10 nM
same,TGI,[12],129 nM
same,GI50,[13],15.5 nM
same,TGI,[13],111 nM
same,GI50,[14],< 10 nM
same,TGI,[14],21.6 nM
same,GI50,[15],< 10 nM
same,TGI,[15],19.1 nM
same,GI50,[16],< 10 nM
same,TGI,[16],135 nM
same,GI50,[17],< 10 nM
same,TGI,[17],< 10 nM
same,GI50,[18],< 10 nM
same,TGI,[18],124 nM
same,GI50,[19],< 10 nM
same,TGI,[19],141 nM
same,GI50,[20],< 10 nM
same,TGI,[20],49 nM
same,GI50,[21],< 10 nM
same,TGI,[21],64.9 nM
same,GI50,[22],< 10 nM
same,TGI,[22],< 10 nM
same,GI50,[23],< 10 nM
same,TGI,[23],120 nM
same,GI50,[24],< 10 nM
same,TGI,[24],158 nM
same,GI50,[25],< 10 nM
same,TGI,[25],34 nM
same,GI50,[26],< 10 nM
same,TGI,[26],< 10 nM
same,GI50,[27],< 10 nM
same,TGI,[27],< 10 nM
same,GI50,[28],< 10 nM
same,TGI,[28],32.5 nM
same,GI50,[29],11.4 nM
same,TGI,[29],82 nM
same,GI50,[30],< 10 nM
same,TGI,[30],109 nM
same,GI50,[31],< 10 nM
same,TGI,[31],83.3 nM
same,GI50,[32],< 10 nM
same,TGI,[32],50.9 nM
same,GI50,[33],107 nM
same,TGI,[33],226 nM
same,GI50,[34],< 10 nM
same,TGI,[34],96 nM
same,GI50,[35],< 10 nM
same,TGI,[35],< 10 nM
same,GI50,[36],< 10 nM
same,TGI,[36],105 nM
same,GI50,[37],< 10 nM
same,TGI,[37],124 nM
same,GI50,[38],< 10 nM
same,TGI,[38],106 nM
same,GI50,[39],< 10 nM
same,TGI,[39],< 10 nM
same,GI50,[40],< 10 nM
same,TGI,[40],19.3 nM
same,GI50,[41],< 10 nM
same,TGI,[41],131 nM
same,GI50,[42],< 10 nM
same,TGI,[42],10.5 nM
same,GI50,[43],< 10 nM
same,TGI,[43],26.3 nM
same,GI50,[44],< 10 nM
same,TGI,[44],36.5 nM
same,GI50,[45],< 10 nM
same,TGI,[45],42 nM
same,GI50,[46],< 10 nM
same,TGI,[46],13.8 nM
same,GI50,[47],< 10 nM
same,TGI,[47],< 10 nM
same,GI50,[48],< 10 nM
same,TGI,[48],154 nM
same,GI50,[49],< 10 nM
same,TGI,[49],192 nM
same,GI50,[50],< 10 nM
same,TGI,[50],< 10 nM
same,GI50,[51],< 10 nM
same,TGI,[51],122 nM
same,GI50,[52],< 10 nM
same,TGI,[52],< 10 nM
same,GI50,[53],< 10 nM
same,TGI,[53],50.6 nM
same,GI50,[54],< 10 nM
same,TGI,[54],134 nM
same,GI50,[55],11.7 nM
same,TGI,[55],51.5 nM
same,GI50,[56],< 10 nM
same,TGI,[56],28.3 nM
same,GI50,[57],< 10 nM
same,TGI,[57],16.7 nM
